These are literature values, as cited in US11591275B2, “Smart release potash fertilizer granules” (RYNAN TECHNOLOGIES PTE LTD, priority 2018, dated 2023).

For the series the following is noted: for pKa: of the organic acid in the extended release layer.

Consider `O=C(O)Cc1cccc2ccccc12` [1-Naphthalene Acetic Acid, 1-Naphthalene acetic acid], for which the pKa (usually the pH at which an ionisable group is half protonated) was 4.23. Moreover, the “pKa* of associated acids” value (acid associated with the anion pendant group of the anti-caking copolymer) is on record as 4.23.

Turning to `O=C(O)C(=O)O` [Oxalic Acid], the pKa is given as 4.10.
